Results from patent publication US20060140869A1, “Polymeric contrast agents for use in medical imaging” (priority 2004, published 2006).

Tested on: rat mammary adenocarcinoma (Mat B) tumor
Assay: MR imaging of subcutaneous Mat B tumors in rats after intravenous injection of polymeric contrast agent
Type: in vivo
Conditions: Mat B tumor in Fisher female rats
Description: Fisher female rats were implanted subcutaneously with rat mammary adenocarcinoma cells (ATTC Mat B cells) that were grown to a suitable density in tissue culture. The implanted cells grew into tumors of 1-2 cm diameter in about 10 to 14 days and continued to grow to larger sizes when experiments extended beyond that time frame.
The reptating polymer that was used (Polylysine-Gd-DTPA) was synthesized using a synthesis method described above with polymer length of 780 monomer units, molecular weight of 460 kDaltons, and about 98% of lysines acylated with DTPA (i.e. about 764 Gd ions). The animals were injected intravenously at a dose of 0.025 mmoles Gd/kG. FIG. 1 are a series of images taken wherein the imaging was done pre-injection, one minute after injection, 60 minutes after injection, and 24 hours after injection with a T1 weighted spin echo pulse sequence (TR=250 ms, TE=9 ms), 12 centimeter FOV, 1 millimeter slices. Receive coil was a solenoid coil of about 5 centimeters diameter. Imaging was done on a Signa 1.5 Tesla scanner.
FIG. 2 is a graph of the slopes in signal change for all the pixels in the tumor and the highest 10% of pixels in the tumor. The signals are heterogenous in space due to angiogenesis being most prevalent in the outer rim of the tumor. Thus in order to capture the regions of interest with high permeability, the average signal associated with the pixels of the entire tumor in the image slice is plotted in addition to the average signal associated with the highest 10% of the pixels. The highest 10% of the pixels represents the hypermeable regions associated with angiogenic processes. The use of all pixels represents the average values for the entire tumor which includes then the center of tumors which are often necrotic and unreactive in terms of blood perfusion. These regions are not biologically relevant and thus the total average values have more “noise” that are associated with the necrotic processes which are not of direct interest in the present case. […]

[1] = linear regression fit, intravenous injection, T1 weighted spin echo, 1.5 Tesla

Polylysine-Gd-DTPA [Example 1]
magnetic resonance signal change compared with the polymer of Example 2 (0.025 mmoles Gd/kG intravenously): enhanced magnetic resonance signals

Polylysine-Gd-DTPA [Example 2]
slope of signal change, all the pixels in the tumor [1]: 7 % per hour
slope of signal change, highest 10% of the pixels in the tumor [1]: 14 % per hour
